Test results as given in ChEMBL document CHEMBL1201862, “PubChem BioAssay data set” (2004).
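96-well plates; 48 h exposure; 5 concentrations. Endpoints by linear interpolation between flanking doses. Not reached: highest tested concentration assigned. At the GI50, growth is halved.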 Calls of active or inactive are those of the source. No stated cut-off is given here; in the data, active = GI50 up to about 1.1 µM and inactive = higher.

Legend:
Experiment in all cases: NCI tumour cell line growth inhibition, 48 h
SK-OV-3 = system: SK-OV-3
OVCAR-3 = system: OVCAR-3
SK-MEL-2 = system: SK-MEL-2
UACC-62 = system: UACC-62
LOX IMVI = system: LOX IMVI
HCT-15 = system: HCT-15
NCI/ADR-RES = system: NCI/ADR-RES
BT-549 = system: BT-549
NCI-H226 = system: NCI-H226
HCC 2998 = system: HCC 2998
SF-268 = system: SF-268
HOP-62 = system: HOP-62
EKVX = system: EKVX
T47D = system: T47D
MDA-MB-435 = system: MDA-MB-435
OVCAR-5 = system: OVCAR-5
RPMI-8226 = system: RPMI-8226
786-0 = system: 786-0
NCI-H522 = system: NCI-H522
CCRF-CEM = system: CCRF-CEM

COc1ccc(/N=N/c2ccc3oc(=O)c(C(=O)Nc4ccccc4)cc3c2)cc1
GI50 (SK-OV-3): > 10 µM (inactive) | GI50 (OVCAR-3): > 10 µM (inactive) | GI50 (SK-MEL-2): > 10 µM (inactive) | GI50 (UACC-62): > 10 µM (inactive) | GI50 (LOX IMVI): > 10 µM (inactive) | GI50 (HCT-15): > 9.23 µM | GI50 (NCI/ADR-RES): > 10 µM (inactive) | GI50 (BT-549): > 10 µM (inactive) | GI50 (NCI-H226): > 10 µM (inactive) | GI50 (HCC 2998): > 10 µM (inactive) | GI50 (SF-268): > 8.32 µM (inactive) | GI50 (HOP-62): > 10 µM (inactive) | GI50 (EKVX): > 10 µM (inactive) | GI50 (T47D): 4.5 µM (inactive) | GI50 (MDA-MB-435): > 10 µM (inactive) | GI50 (OVCAR-5): > 10 µM (inactive) | GI50 (RPMI-8226): > 10 µM (inactive) | GI50 (786-0): > 10 µM (inactive) | GI50 (NCI-H522): > 10 µM (inactive)

N#CC12C(=O)N=C(N)C1(C#N)C(c1ccco1)NC1=C2CCCC1 (stereo not drawn)
GI50 (SK-OV-3): > 100 µM (inactive) | GI50 (SK-MEL-2): > 100 µM (inactive) | GI50 (UACC-62): > 100 µM (inactive) | GI50 (LOX IMVI): > 100 µM (inactive) | GI50 (HCT-15): > 100 µM | GI50 (NCI/ADR-RES): > 100 µM (inactive) | GI50 (BT-549): > 100 µM (inactive) | GI50 (NCI-H226): > 100 µM (inactive) | GI50 (HCC 2998): > 100 µM (inactive) | GI50 (SF-268): > 100 µM (inactive) | GI50 (HOP-62): > 100 µM (inactive) | GI50 (EKVX): > 100 µM (inactive) | GI50 (T47D): > 100 µM (inactive) | GI50 (MDA-MB-435): > 100 µM (inactive) | GI50 (OVCAR-5): > 100 µM (inactive) | GI50 (CCRF-CEM): > 100 µM (inactive) | GI50 (RPMI-8226): > 100 µM (inactive) | GI50 (786-0): > 100 µM (inactive) | GI50 (NCI-H522): > 100 µM (inactive)

O=C(Nc1ccccc1)n1[nH]c(=O)n(-c2ccccc2)c1=O
GI50 (SK-OV-3): > 100 µM (inactive) | GI50 (SK-MEL-2): > 100 µM (inactive) | GI50 (UACC-62): > 100 µM (inactive) | GI50 (LOX IMVI): > 100 µM (inactive) | GI50 (HCT-15): > 100 µM | GI50 (NCI/ADR-RES): > 100 µM (inactive) | GI50 (BT-549): > 100 µM (inactive) | GI50 (NCI-H226): > 100 µM (inactive) | GI50 (HCC 2998): > 100 µM (inactive) | GI50 (SF-268): > 100 µM (inactive) | GI50 (T47D): > 100 µM (inactive) | GI50 (MDA-MB-435): > 100 µM (inactive) | GI50 (CCRF-CEM): > 100 µM (inactive) | GI50 (RPMI-8226): > 100 µM (inactive) | GI50 (786-0): > 100 µM (inactive) | GI50 (NCI-H522): > 100 µM (inactive)

O=C(O)Cc1cccc2c1OC(c1ccccc1)C(C(=O)c1ccccc1)C2=O (stereo not drawn)
GI50 (SK-OV-3): 2.07 µM (inactive) | GI50 (OVCAR-3): > 100 µM (inactive) | GI50 (UACC-62): 13.4 µM (inactive) | GI50 (LOX IMVI): 83.8 µM (inactive) | GI50 (HCT-15): 98.4 µM | GI50 (NCI/ADR-RES): > 100 µM (inactive) | GI50 (BT-549): > 100 µM (inactive) | GI50 (NCI-H226): > 100 µM (inactive) | GI50 (HCC 2998): 20.4 µM (inactive) | GI50 (SF-268): 44 µM (inactive) | GI50 (HOP-62): > 100 µM (inactive) | GI50 (EKVX): 36.2 µM (inactive) | GI50 (T47D): 10.1 µM (inactive) | GI50 (MDA-MB-435): 35 µM (inactive) | GI50 (OVCAR-5): > 100 µM (inactive) | GI50 (CCRF-CEM): 41.2 µM (inactive) | GI50 (RPMI-8226): 33.6 µM (inactive) | GI50 (786-0): 52.5 µM (inactive) | GI50 (NCI-H522): 43.2 µM (inactive)
